Assay results: patent US9169492B2, “Compositions and methods for enhanced parvovirus transduction” (priority 2011, dated 2015)
Peptide text beside a SMILES is read from it. * marks the point of attachment. Cbz = O=C(OCc1ccccc1)*

Key:
FVIII−/− mice [1] = experiment: Canine FVIII activity (Coatest) in plasma of hemophilia A mice after portal vein AAV.cFVIII with or without proteasome inhibitor; assay type: in vivo, mouse; settings: for week at which FVIII activity became detectable: AAV2.cFVIII vector, drug rows = co-administered with this vector (FIG. 2C); for enhanced factor VIII expression on average: hemophilia mice
Experimental: (§1) To avoid anticipated antibody-mediated immune responses to the canine FVIII transgene, all FVIII^−/− mice received cyclophosphamide (Sigma Aldrich, St Louis, Mo.) injected intraperitoneally in 3 doses of 100 μg each on days −3, 0, and +3, as previously described^5.
(§2) Canine FVIII activity in mouse plasma was measured by the Coatest SP4 kit (Chromogenix, DiPharma, West Chester, Ohio) following the manufacture's instruction with modification. Normal canine plasma (regarded as 100 percent activity=1 IU/ml) was serially diluted into FVIII^−/− pooled mouse plasma to generate the standard curve. Neutralizing antibodies to canine FVIII in mouse were measured by the Bethesda assay using a START 4 Coagulation Analyzer as described^42 (Diagnostica Stago, Asnières, France). Human factor IX was measured based on one-stage factor IX activity assay (FIX-specific aPTT) as previously described, using a START 4 Coagulation Analyzer (Diagnostica Stago, Asnières, France)^43.
Studies were carried out to analyze the effect of combination therapy using large transgene cassette FVIII in hemophilic A mice using the same genetic background (C57B1/6). […] Virus was characterized for total particle number by qPCR, virion integrity by electron microscopy, capsid ratio by silver stain, and DNA genome size by alkaline gel electrophoresis.

[2] = Bortezomib dose tolerability in mice without AAV vector; assay type: in vivo
Experimental: The primary objective of these studies was to validate in small and large animal “combination therapy” using FDA approved drug bortezomib and AAV transgene vectors. The present studies describe the use of the proteasome inhibitor, bortezomib (also known as Velcade®), as this is the only proteasome inhibitor currently approved for clinical use by the FDA. Bortezomib, like most chemotherapy is dosed based on body surface area. For all large animal studies, the FDA-approved dose of (1.3 mg/m^2) was used. However preclinical toxicity data has established a safe bortezomib dose for mice of 0.5 mg per kilogram of body weight^23. […] Even though the dosing in mice was calculated on a per kilogram body weight basis vs. clinically recommended body surface area, the total dose used in mice is roughly equivalent to total dose used in dog studies described herein.

FIX−/− mice = experiment: Human factor IX activity (one-stage FIX-specific aPTT) in hemophilia B mice after portal vein AAV.hFIX with or without bortezomib; assay type: in vivo, mouse; settings: 20 weeks
Experimental: as §1, §2
Studies were conducted to test the effect of combination therapy using bortezomib on in vivo correction of hemophilic animals. First, a vector carrying a genome approximately the same size as wild type AAV was used for the correction of hemophilia B in a mouse model. […]

FVIII−/− mice [3] = experiment: Liver ALT, AST and complete blood counts in vector-treated hemophilia A mice; assay type: in vivo, mouse; settings: mice receiving vector alone or in combination with bortezomib
From the text: In these mice, canine factor VIII peaked at 8 weeks, then began to decrease. […] Bortezomib co-administration improved initial and sustained canine factor VIII expression. […] To facilitate comparison of the proteasome inhibitor effect upon vectors generated from wtAAV-sized factor IX transgene and oversized factor VIII transgene, the same time points are graphed in FIGS. 2A and 2B (factor IX) and FIGS. 2C and 2D (factor VIII). Bortezomib treatment was associated with a proportionately greater augmentation of the oversize transgene expression than that of the smaller transgene.

hemophilia A dogs = experiment: Tolerability of vector and bortezomib in hemophilia A dogs; assay type: in vivo, dog; settings: no liver transaminase elevations, neurologic symptoms or changes in hematologic parameters
Experimental: Using identical AAV cFVIII vector cassettes, studies were carried out to determine whether proteasome inhibitor augmentation of the expression of large transgenes translates to the canine hemophilia A model. […] Four hemophilia A pups received the same AAV therapy and received a single I.V. dose of the proteasome inhibitor bortezomib at FDA-approved dose of (1.3 mg/m^2). […] Specifically, no liver transaminase elevations, neurologic symptoms or changes in hematologic parameters were observed.

293T cells = experiment: FACScan analysis of GFP expression in AAV2.GFP-transduced cells with or without bortezomib; assay type: cell-based; settings: AAV2.GFP transduction and bortezomib co-administration
Experimental: 293T cells were grown in Dulbecco's modified Eagle's medium (Mediatech, Herndon, Va.) supplemented with 9% fetal bovine serum and 1% penicillin/streptomycin solution and transduced at a multiplicity of infection of 1. At 3-5 days after transduction, cells were harvested, fixed in phosphate-buffered saline (PBS) containing 2% formaldehyde/0.2% glutaraldehyde, and analyzed by FACScan as previously described^40.

Factor VIII−/− mice = experiment: Expression from codon-optimized AAV8 factor VIII vector with or without bortezomib; assay type: in vivo, mouse; settings: ssAAV8 3×10^10 vg/animal portal vein + bortezomib 0.5 mg/kg; persisted 12 weeks
Experimental: Factor VIII^−/− mice received 3×10^10 vg/animal single strand AAV serotype 8 vector encoding an oversized factor VIII transgene (n=5 mice per treatment group). The canine factor VIII cDNA sequence incorporated in the vector was engineered for optimal mammalian codon usage and GC nucleotide content. Mice received vector infusion to portal vein either alone or in combination with 0.5 mg/kg of proteasome inhibitor bortezomib (PI). While it has been established that codon-optimization increases expression from clotting factor VIII and IX vectors, it was not established whether PI could further augment the more efficient codon-optimized vectors.

[4] = preclinical toxicity data (ref 23); cited from earlier work
[5] = bortezomib co-administered with AAV2 cFVIII vector

Row | Structure (SMILES) | week at which FVIII activity became detectable (FVIII−/− mice [1]) [week] | FVIII expression increased on average vs vector alone (FVIII−/− mice [1]; mouse, in vivo) [%] | effect on factor VIII expression (FVIII−/− mice [1]; mouse, in vivo) | tolerability ([2]; 0.5 mg/kg, without AAV vector) | tolerability ([2]; higher dose 1.0 mg/kg) | higher factor IX activity vs vector alone (FIX−/− mice; bortezomib single dose co-administered with AAV8 factor IX vector) [%] | increase in factor IX expressed vs vector alone (FIX−/− mice; bortezomib single dose with ssAAV2.FIX) [%] | factor VIII activity maintained for a year (FVIII−/− mice [1]; [5]) | peak factor VIII activity at week 8 (FVIII−/− mice [1]; [5]) [IU/ml] | persistence of enhanced expression without further proteasome inhibitor treatment (FVIII−/− mice [1]; hemophilic mice) [year] | factor VIII expression higher on average vs AAV8.cFVIII vector alone (FVIII−/− mice [1]; mouse, in vivo) [%] | enhanced factor VIII expression on average (FVIII−/− mice [1]; single dose of bortezomib given with AAV2 factor VIII vector) [%] | enhanced factor VIII expression on average (FVIII−/− mice [1]; single dose of bortezomib given with AAV8 factor VIII vector) [%] | liver ALT, AST and complete blood counts (FVIII−/− mice [3]) | tolerability (hemophilia A dogs) | percentage of cells expressing transgene (293T cells) | expression of codon-optimized factor VIII (Factor VIII−/− mice) | safe bortezomib dose for mice [4]
1 | CC(C)C[C@@H](C=O)NC(=O)[C@H](CC(C)C)NC(=O)[C@H](CC(C)C)NC(=O)OCc1ccccc1 [MG-132] (Cbz-Leu-Leu-Leu-aldehyde) | 2 | > 150 | slightly increased factor VIII expression was observed in the first month | – | – | – | – | – | – | – | – | – | – | – | – | – | – | –
2 | CC(C)C[C@H](NC(=O)[C@H](Cc1ccccc1)NC(=O)c1cnccn1)B(O)O [bortezomib] | 1 | > 550 | – | tolerated the proteasome inhibitors without apparent side effect or change in hematologic parameters | occasionally mice receiving this dose displayed decreased activity and feeding | ~24 | 83 | more than 3% | 0.11±0.06 | > 1 | 259 | ~600 | ~300 | did not show any evidence of hepatic or hematologic toxicity | well tolerated | increase | augmented expression | 0.5 mg per kilogram of body weight
